This is an account of results in patent US11370771B2, “Inhibitors of TRPC6” (Boehringer Ingelheim International GmbH, priority 2018, dated 2022).

For this assay, the target named is T1, human TRPC6 (Homo sapiens, UniProt Q9Y210).
T1 construct: expressed in transfected cells
T1 sequence (Q9Y210 1-931): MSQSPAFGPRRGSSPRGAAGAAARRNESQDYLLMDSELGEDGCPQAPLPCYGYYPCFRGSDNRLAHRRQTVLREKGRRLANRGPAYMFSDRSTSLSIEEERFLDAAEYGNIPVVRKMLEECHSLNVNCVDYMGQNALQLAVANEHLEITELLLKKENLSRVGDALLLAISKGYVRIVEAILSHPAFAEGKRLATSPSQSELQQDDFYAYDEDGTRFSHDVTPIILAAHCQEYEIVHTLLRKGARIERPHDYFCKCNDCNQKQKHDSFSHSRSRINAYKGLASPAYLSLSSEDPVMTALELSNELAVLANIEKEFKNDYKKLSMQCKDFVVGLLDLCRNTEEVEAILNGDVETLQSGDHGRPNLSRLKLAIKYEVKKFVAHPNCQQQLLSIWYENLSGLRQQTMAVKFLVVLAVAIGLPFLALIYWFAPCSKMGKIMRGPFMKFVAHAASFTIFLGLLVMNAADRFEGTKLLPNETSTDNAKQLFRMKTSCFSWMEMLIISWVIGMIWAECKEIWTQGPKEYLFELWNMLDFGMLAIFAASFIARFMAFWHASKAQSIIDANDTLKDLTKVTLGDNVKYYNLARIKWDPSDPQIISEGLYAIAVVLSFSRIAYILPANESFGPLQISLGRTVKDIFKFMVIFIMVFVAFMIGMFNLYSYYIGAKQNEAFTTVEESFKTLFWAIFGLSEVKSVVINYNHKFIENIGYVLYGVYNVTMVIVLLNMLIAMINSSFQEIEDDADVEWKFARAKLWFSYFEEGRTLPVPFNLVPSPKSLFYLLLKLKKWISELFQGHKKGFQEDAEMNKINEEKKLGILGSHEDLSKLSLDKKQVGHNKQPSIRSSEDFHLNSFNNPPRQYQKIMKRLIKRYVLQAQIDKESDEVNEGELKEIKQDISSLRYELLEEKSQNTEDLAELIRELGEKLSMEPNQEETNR
Kind of assay: High Throughput Screening Assay Method 2 (membrane potential dye, GSK1702934A agonist, HEK293 stably transfected with human TRPC6). As to conditions: antagonist effect against human TRPC6, 3 μM GSK1702934A agonist, HEK293 TRPC6 cells, read-out: Fluorescence TRPC6 IC50. In kind it is cell-based. The source says: This screening assay measures TRPC6 (transient receptor potential cation channel, subfamily C, member 6) ion channel activation via addition either of the commercially available DAG ligand analogue OAG (1-oleoyl-2-acetyl-sn-glycerol) or of the TRPC6 agonist 1-[1-(4,5,6,7,8-pentahydrocyclohepta[2,1-d]thiophen-2-ylcarbonyl)-4-piperidyl]-3-hydrobenzimidazol-2-one (GSK1702934A). The assay utilizes a FLIPR membrane potential (FMP) dye from Molecular Devices, which is a voltage sensitive indicator with a fluorescent quencher. Changes in membrane potential as measured by the fluorescent signal increase during membrane depolarization provide a measurement of channel activity.
The commercially available HEK293 cell line (ATCC) was stably transfected with an human TRPC6 gene construct in pcDNA3.1(+) (Thermo Fisher) and screened to find a clone with TRPC6 expression. These cells were maintained in growth medium recommended by the manufacturer supplemented with 400 μg/ml G418 to promote retention of the TRPC6 construct. After growing to near confluency, cells were plated at a density of 15,000 cells/well in clear bottom black walled poly-D-Lys coated 384-well tissue culture treated plates (TwinHelix, cat. #GR 4332 CPL) in growth medium lacking G418, and allowed to grow for 24 hrs. Growth media was removed from the wells and cells were then loaded with 20 μL of 0.5× Membrane Potential sensitive dye (Molecular Devices) in the presence of 30 μM BAPTA-AM (Invitrogen) in Tyrode's assay buffer (130 mM NaCl, 5 mM KCl, 0.15 mM CaCl2), 1 mM MgCl2, 5 mM NaHCO3, 20 mM HEPES, pH 7.4) and incubated for 60 min at room temperature in the dark. Ten μL/well of test compound or controls was added to the wells with the FLIPR^TETRA (Molecular Devices) and incubated for 5 minutes. Compounds were tested at eight concentrations (10, 3.16, 1, 0.316, 0.1, 0.0316, 0.01 and 0.00316 μM diluted in Tyrode's assay buffer and 0.5% DMSO, final concentration) with inter-plate duplicate data points. Subsequently, 15 μL/well of GSK1702934A agonist in Tyrode's assay buffer was added to a final concentration of 3 μM by the FLIPR^TETRA and the signal of the emitted fluorescence (Excitation: 510-545 nm, Emission: 565-625 nm) was recorded for 3 minutes. Negative and positive controls were included on each plate. Negative controls wells consisted of cells exposed to Tyrode's assay buffer and agonist solution, but no test compound. Positive control consisted of cells exposed to […] Verapamil hydrochloride (Tocris, cat. #0654) diluted in Tyrode's assay buffer and 0.5% DMSO final concentration and agonist solution. Inhibition was expressed as a percentage of control, with 0% activity being a result in which the response value of the test wells reached a level identical to the wells containing Verapamil plus GSK1702934A and 100% activity being a result in which the response value of the test wells reached a level identical to the wells containing GSK1702934A alone. Genedata Screener® 14.0.6 was used for data analysis to fit IC50 curves.

pIC50: −log10 of the molar value.

By pIC50 is commonly meant the negative decadic logarithm of the IC50, by convention in mol/L. With `COc1cc(N)ncc1C1CCN(C(=O)c2ccc(OC[C@@H]3C[C@H]3C)cc2F)CC1` (relative stereo) [Compound 38, 5-[1-(2-Fluoro-4-{[trans-2-methylcyclopropyl]methoxy}benzoyl)piperidin-4-yl]-4-methoxypyridin-2-amine], the pIC50 was 6.10.
For `COc1cc(N)ncc1N1CCN(C(=O)c2ccc(Oc3ccc(F)cc3)cc2F)C2(CC2)C1` [Compound 27, 5-{4-[2-Fluoro-4-(4-fluorophenoxy)benzoyl]-4,7-diazaspiro[2.5]octan-7-yl}-4-methoxypyridin-2-amine] the value was 7.01; for `COc1cc(N)ncc1N1CCN(C(=O)c2cc(F)c(Oc3ccc(F)cc3)cc2F)C2(CC2)C1` [Compound 28, 5-{4-[2,5-Difluoro-4-(4-fluorophenoxy)benzoyl]-4,7-diazaspiro[2.5]octan-7-yl}-4-methoxypyridin-2-amine], 6.87.
Turning to `COc1cc(C(=O)N2CCC(c3cnc(N)cc3OC)CC2)c(F)cc1Oc1ccc(F)cc1` [Compound 29, 5-{1-[2-Fluoro-4-(4-fluorophenoxy)-5-methoxybenzoyl]piperidin-4-yl}-4-methoxypyridin-2-amine], the pIC50 is 6.80.
For `COc1cc(N)ncc1C1CCN(C(=O)c2cc(F)c(Oc3ccc(F)cc3)cc2F)CC1` [Compound 30, 5-{1-[2,5-Difluoro-4-(4-fluorophenoxy)benzoyl]piperidin-4-yl}-4-methoxypyridin-2-amine], the pIC50 was 6.78.
As to `COc1cc(N)ncc1C1CCN(C(=O)c2ccc(Oc3ccc(F)cc3)cc2F)CC1` [Compound 31, 5-{1-[2-Fluoro-4-(4-fluorophenoxy)benzoyl]piperidin-4-yl}-4-methoxypyridin-2-amine], the pIC50 is 6.69.
Then `COc1cc(N)ncc1C1CCN(C(=O)c2ccc(Oc3ccc(F)cc3)cc2)CC1` [Compound 32, 5-{1-[4-(4-Fluorophenoxy)benzoyl]piperidin-4-yl}-4-methoxypyridin-2-amine], with 7.01.
With `COc1cc(C(=O)N2CCC(c3cnc(N)cc3OC)CC2)c(F)cc1OCC(C)C` [Compound 33, 5-{1-[2-Fluoro-5-methoxy-4-(2-methylpropoxy)benzoyl]piperidin-4-yl}-4-methoxypyridin-2-amine], the negative logarithm of the IC50 (pIC50) was 6.60.
As to `COc1cc(C(=O)N2CCC(c3cnc(N)cc3OC)CC2)c(F)cc1OCC1CC(C)C1` (centres unmarked) [Compound 34, 5-(1-{2-Fluoro-5-methoxy-4-[(3-methylcyclobutyl)methoxy]benzoyl}piperidin-4-yl)-4-methoxypyridin-2-amine], the pIC50 is 6.37.
For `COc1cc(C(=O)N2CCC(c3cnc(N)cc3OC)CC2)c(F)cc1OCC1CC1` [Compound 35, 5-{1-[4-(Cyclopropylmethoxy)-2-fluoro-5-methoxybenzoyl]piperidin-4-yl}-4-methoxypyridin-2-amine], the pIC50 was 6.81.
Then `COc1cc(C(=O)N2CCC(c3cnc(N)cc3OC)CC2)c(F)cc1OCC1CCC1` [Compound 36, 5-{1-[4-(Cyclobutylmethoxy)-2-fluoro-5-methoxybenzoyl]piperidin-4-yl}-4-methoxypyridin-2-amine], with 6.87; and `COc1cc(C(=O)N2CCC(c3cnc(N)cc3OC)CC2)c(F)cc1OCC1CC(F)(F)C1` [Compound 37, 5-(1-{4-[(3,3-Difluorocyclobutyl)methoxy]-2-fluoro-5-methoxybenzoyl}piperidin-4-yl)-4-methoxypyridin-2-amine], with 6.32.
As to `CCCOc1ccc(C(=O)N2CCC(c3cnc(N)cc3OC)CC2)c(F)c1` [Compound 39, 5-[1-(2-Fluoro-4-propoxybenzoyl)piperidin-4-yl]-4-methoxypyridin-2-amine], the pIC50 was 6.18.
As to `COc1cc(N)ncc1C1CCN(C(=O)c2ccc(OCc3csnn3)cc2F)CC1` [Compound 40, 5-(1-{2-Fluoro-4-[(1,2,3-thiadiazol-4-yl)methoxy]benzoyl}piperidin-4-yl)-4-methoxypyridin-2-amine], the pIC50 was 6.32.
